In patent US20240382483A1, “HETEROCYCLIC EGFR INHIBITORS FOR USE IN THE TREATMENT OF CANCER” (Blueprint Medicines Corporation, priority 2021, published 2024):
Read-outs that look alike come from different tables or passages of the source.

Experiments:
EGFR (L858R T790M C797S) = target: T1, EGFR (L858R T790M C797S) (Homo sapiens, UniProt P00533, C797S/L858R/T790M); assay: Biochemical EGFR inhibition assay (Caliper mobility shift), EGFR LRTMCS
T1 construct: purchased SignalChem E10-122VG
Method: Reactions proceeded until between 10% to 20% total peptides were phosphorylated at room temperature (25° C.) and were terminated with 35 mM 2,2′,2″,2′″-(ethane-1,2-diyldinitrilo)tetraacetic acid (EDTA). Product was detected using the Caliper mobility shift detection method where the phosphorylated peptide (product) and substrate were electrophoretically separated and measured. Percent activity was plotted against log concentration of compound and points to generate an apparent IC50.

[1] = target: T2, intracellular phosphorylation of EGFR in NCI-H1975 cell line that harbors the EGFR L858R T790M mutations (Homo sapiens, UniProt P00533, L858R/T790M); assay: NCI-H1975 pEGFR AlphaLISA assay; format: cell-based; settings: NCI-H1975 cells (EGFR L858R T790M), p-EGFR (Tyr1068), 4-5 hours incubation; read-out: Ext pEGFR H1975 GMean IC50 (nM) Protocol: @Pharmaron AlphaLISA (Num)
T2 construct: NCI-H1975 cell line that harbors the EGFR L858R T790M mutations (ATCC, CRL-5908); host or cells: NCI-H1975
T2 sequence (P00533 25-1210 T790M/L858R): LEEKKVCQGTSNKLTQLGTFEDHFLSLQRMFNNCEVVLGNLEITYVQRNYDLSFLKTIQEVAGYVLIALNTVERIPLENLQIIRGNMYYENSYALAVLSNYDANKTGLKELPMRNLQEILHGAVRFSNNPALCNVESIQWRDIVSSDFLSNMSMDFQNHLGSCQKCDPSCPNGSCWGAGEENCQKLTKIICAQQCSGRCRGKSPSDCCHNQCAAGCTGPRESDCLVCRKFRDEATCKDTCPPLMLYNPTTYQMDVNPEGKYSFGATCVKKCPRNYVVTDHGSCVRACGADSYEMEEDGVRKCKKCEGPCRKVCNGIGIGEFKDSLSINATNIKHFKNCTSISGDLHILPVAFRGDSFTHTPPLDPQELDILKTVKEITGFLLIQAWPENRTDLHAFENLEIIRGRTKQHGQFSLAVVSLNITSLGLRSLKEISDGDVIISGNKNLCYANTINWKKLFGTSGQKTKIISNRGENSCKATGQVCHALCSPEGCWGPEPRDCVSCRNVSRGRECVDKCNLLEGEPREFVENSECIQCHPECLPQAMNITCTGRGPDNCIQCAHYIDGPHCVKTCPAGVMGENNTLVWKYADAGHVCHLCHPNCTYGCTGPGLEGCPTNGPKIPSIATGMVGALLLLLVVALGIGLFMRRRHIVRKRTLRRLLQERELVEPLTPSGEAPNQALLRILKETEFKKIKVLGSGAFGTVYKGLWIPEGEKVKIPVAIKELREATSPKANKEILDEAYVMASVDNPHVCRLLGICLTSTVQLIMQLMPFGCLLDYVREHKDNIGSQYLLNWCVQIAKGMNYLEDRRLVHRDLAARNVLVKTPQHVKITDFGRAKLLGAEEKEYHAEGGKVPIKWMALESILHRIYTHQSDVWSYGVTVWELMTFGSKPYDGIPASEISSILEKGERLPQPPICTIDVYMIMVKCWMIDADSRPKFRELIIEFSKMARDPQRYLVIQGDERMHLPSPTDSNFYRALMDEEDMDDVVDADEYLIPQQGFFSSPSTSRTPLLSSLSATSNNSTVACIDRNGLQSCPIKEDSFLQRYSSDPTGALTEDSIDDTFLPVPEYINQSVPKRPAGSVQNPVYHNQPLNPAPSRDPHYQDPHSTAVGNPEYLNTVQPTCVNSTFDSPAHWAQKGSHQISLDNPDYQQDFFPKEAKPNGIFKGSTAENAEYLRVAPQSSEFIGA
Method: On the next day, the test compounds and DMSO control were added into H1975 cell plate followed by incubation at 37C/5% CO2 for 4-5 hours. […] Then 5 μL of a donor bead mix was added to each well followed by overnight incubation at room temperature in dark. On the next day, the plate was read at a compatible plate reader to obtain pEGFR signal. Percent of pEGFR inhibition was plotted against log concentration of compounds to generate IC50 values.

[2] = LRTMCS (PH) IC50 (nM) @ 1 mM ATP (Num), EGFR LRTMCS mutant

T1 sequence (P00533 25-1210 T790M/C797S/L858R): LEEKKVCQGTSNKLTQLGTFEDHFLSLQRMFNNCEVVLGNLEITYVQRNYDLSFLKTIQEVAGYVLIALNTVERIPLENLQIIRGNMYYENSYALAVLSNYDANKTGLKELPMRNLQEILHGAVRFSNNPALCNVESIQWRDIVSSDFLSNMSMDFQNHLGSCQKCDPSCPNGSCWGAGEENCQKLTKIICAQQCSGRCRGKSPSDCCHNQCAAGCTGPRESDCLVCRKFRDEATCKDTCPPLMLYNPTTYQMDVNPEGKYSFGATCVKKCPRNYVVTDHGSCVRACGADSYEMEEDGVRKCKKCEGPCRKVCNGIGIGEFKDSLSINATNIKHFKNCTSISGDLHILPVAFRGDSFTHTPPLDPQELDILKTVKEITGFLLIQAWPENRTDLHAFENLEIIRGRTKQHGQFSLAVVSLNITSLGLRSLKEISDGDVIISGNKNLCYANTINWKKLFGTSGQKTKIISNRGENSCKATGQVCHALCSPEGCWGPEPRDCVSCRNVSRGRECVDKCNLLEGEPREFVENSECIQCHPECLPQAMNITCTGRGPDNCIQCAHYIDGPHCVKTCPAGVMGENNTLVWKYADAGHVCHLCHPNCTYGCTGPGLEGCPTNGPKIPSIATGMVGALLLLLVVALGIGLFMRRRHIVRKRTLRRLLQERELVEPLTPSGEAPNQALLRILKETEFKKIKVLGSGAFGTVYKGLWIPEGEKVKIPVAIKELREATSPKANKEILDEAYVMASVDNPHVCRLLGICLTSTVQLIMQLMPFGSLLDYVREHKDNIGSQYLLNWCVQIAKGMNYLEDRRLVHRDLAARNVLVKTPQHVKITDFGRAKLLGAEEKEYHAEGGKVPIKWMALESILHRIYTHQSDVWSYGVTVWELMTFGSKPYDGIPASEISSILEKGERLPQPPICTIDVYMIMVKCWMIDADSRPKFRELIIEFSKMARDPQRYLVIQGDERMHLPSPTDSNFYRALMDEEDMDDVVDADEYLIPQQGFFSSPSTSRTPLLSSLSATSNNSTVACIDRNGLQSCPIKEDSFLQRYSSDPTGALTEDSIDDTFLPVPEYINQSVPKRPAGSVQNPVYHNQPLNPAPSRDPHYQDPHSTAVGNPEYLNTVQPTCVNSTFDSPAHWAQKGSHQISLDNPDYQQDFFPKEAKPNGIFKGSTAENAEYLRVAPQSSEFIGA

SMILES	IC50 (EGFR (L858R T790M C797S); [2])	IC50 [1]	IC50 (EGFR (L858R T790M C797S); read-out: LRTMCS (PH) IC50 (nM) @ 1 mM ATP (Num), EGFR LRTMCS mutant)
CC(C)c1cnc(N2CC[C@@]23CCN(C)C3)c2cnc(Nc3ccnc(N4CC[C@@H](O)[C@@](C)(F)C4)n3)cc12 (single isomer, unassigned) [Example 199, (3S,4R)-3-fluoro-1-(4-((5-isopropyl-8-((R)-6-methyl-1,6-diazaspiro[3.4]octan-1-yl)-2,7-naphthyridin-3-yl)amino)pyrimidin-2-yl)-3-methylpiperidin-4-ol or (3S,4R)-3-fluoro-1-(4-((5-isopropyl-8-((S)-6-methyl-1,6-diazaspiro[3.4]octan-1-yl)-2,7-naphthyridin-3-yl)amino)pyrimidin-2-yl)-3-methylpiperidin-4-ol]	< 15 nM	20 to 30 nM	–
C[C@@H]1CCN1c1ncc([C@@H](C)OCC2COC2)c2cc(Nc3ccnc(N4CC[C@@H](O)[C@@](C)(F)C4)n3)ncc12 (single isomer, unassigned) [Example 184, (3S,4R)-3-fluoro-3-methyl-1-(4-((8-((R)-2-methylazetidin-1-yl)-5-((R)-1-(oxetan-3-ylmethoxy)ethyl)-2,7-naphthyridin-3-yl)amino)pyrimidin-2-yl)piperidin-4-ol or (3S,4R)-3-fluoro-3-methyl-1-(4-((8-((R)-2-methylazetidin-1-yl)-5-((S)-1-(oxetan-3-ylmethoxy)ethyl)-2,7-naphthyridin-3-yl)amino)pyrimidin-2-yl)piperidin-4-ol]	20 to 30 nM	30 to 50 nM	–
C[C@H](CO)c1cnc(N2CC[C@H]2C)c2cnc(Nc3ccnc(N4C[C@@H](F)[C@@H](O)C(C)(C)C4)n3)cc12 (single isomer, unassigned) [Example 187]	30 to 100 nM	> 50 nM	–
CC(C)c1cnc(N2CC(F)C2)c2cnc(Nc3ccnc(N4CC[C@@H](O)[C@@](C)(F)C4)n3)cc12 [Example 47, (3S,4R)-3-fluoro-1-(4-((8-(3-fluoroazetidin-1-yl)-5-isopropyl-2,7-naphthyridin-3-yl)amino)pyrimidin-2-yl)-3-methylpiperidin-4-ol]	< 15 nM	20 to 30 nM	–
CC(C)c1cnc(N2CC(N=S(C)(C)=O)C2)c2cnc(Nc3ccnc(N4CC[C@@H](O)[C@@](C)(F)C4)n3)cc12 [Example 94, ((1-(6-((2-((3S,4R)-3-fluoro-4-hydroxy-3-methylpiperidin-1-yl)pyrimidin-4-yl)amino)-4-isopropyl-2,7-naphthyridin-1-yl)azetidin-3-yl)imino)dimethyl-l6-sulfanone]	< 15 nM	20 to 30 nM	–
[2H]C([2H])([2H])O[C@H]1CCN(c2nccc(Nc3cc4c(C(C)C)cnc(N5C[C@H](OCCO)[C@H]5C)c4cn3)n2)C[C@H]1F [Example 137, 2-(((2R,3S)-1-(6-((2-((3R,4S)-3-fluoro-4-(methoxy-d3)piperidin-1-yl)pyrimidin-4-yl)amino)-4-isopropyl-2,7-naphthyridin-1-yl)-2-methylazetidin-3-yl)oxy)ethan-1-ol]	< 15 nM	< 10 nM	–
CC(C)c1nnc(N2CCCC2)c2cnc(Nc3ccnc(N4CC[C@@H](O)[C@@](C)(F)C4)n3)cc12 [Example 114, (3S,4R)-3-fluoro-1-(4-((1-isopropyl-4-(pyrrolidin-1-yl)pyrido[3,4-d]pyridazin-7-yl)amino)pyrimidin-2-yl)-3-methylpiperidin-4-ol]	30 to 100 nM	> 50 nM	–
CO[C@@H]1CCN(c2nccc(Nc3cc4c(C(C)C)cnc(N5CCC56CN(C)C6)c4cn3)n2)C[C@@H]1F [Example 41, N-(2-((3S,4R)-3-fluoro-4-methoxypiperidin-1-yl)pyrimidin-4-yl)-5-isopropyl-8-(6-methyl-1,6-diazaspiro[3.3]heptan-1-yl)-2,7-naphthyridin-3-amine]	< 15 nM	30 to 50 nM	–
CC(C)c1cnc(-c2cnn(S(C)(=O)=O)c2)c2cnc(Nc3ccnc(N4CC[C@@H](O)[C@@](C)(F)C4)n3)cc12 [Example 18, (3S,4R)-3-fluoro-1-(4-((5-isopropyl-8-(1-(methylsulfonyl)-1H-pyrazol-4-yl)-2,7-naphthyridin-3-yl)amino)pyrimidin-2-yl)-3-methylpiperidin-4-ol]	15 to 20 nM	30 to 50 nM	–
CC(C)c1cnc(N2CC[C@@H]2C)c2cnc(Nc3ccnc(N4CC[C@@H](O)[C@@H](F)C4)n3)cc12 (single isomer, unassigned) [Example 159, (3S,4R)-3-fluoro-1-(4-((5-isopropyl-8-((S)-2-methylazetidin-1-yl)-2,7-naphthyridin-3-yl)amino)pyrimidin-2-yl)piperidin-4-ol or (3S,4R)-3-fluoro-1-(4-((5-isopropyl-8-((R)-2-methylazetidin-1-yl)-2,7-naphthyridin-3-yl)amino)pyrimidin-2-yl)piperidin-4-ol]	< 15 nM	10 to 20 nM	–
CC(C)c1cnc(N2CC[C@H]2C)c2cnc(Nc3ccnc(N4CC[C@@H](OCCO)[C@@H](F)C4)n3)cc12 [Example 142, 2-(((3S,4R)-3-fluoro-1-(4-((5-isopropyl-8-((R)-2-methylazetidin-1-yl)-2,7-naphthyridin-3-yl)amino)pyrimidin-2-yl)piperidin-4-yl)oxy)ethan-1-ol]	< 15 nM	< 10 nM	–
CC(C)c1cnc(-c2cn(C)nn2)c2cnc(Nc3ccnc(N4CC[C@@H](O)[C@@](C)(F)C4)n3)cc12 [Example 10, (3S,4R)-3-fluoro-1-(4-((5-isopropyl-8-(1-methyl-1H-1,2,3-triazol-4-yl)-2,7-naphthyridin-3-yl)amino)pyrimidin-2-yl)-3-methylpiperidin-4-ol]	< 15 nM	10 to 20 nM	–
CC(C)c1cnc(N2CCCC2)c2cnc(Nc3ccnc(N4CC[C@@H](O)[C@@H](F)C4)n3)cc12 [Example 151, (3S,4R)-3-fluoro-1-(4-((5-isopropyl-8-(pyrrolidin-1-yl)-2,7-naphthyridin-3-yl)amino)pyrimidin-2-yl)piperidin-4-ol]	20 to 30 nM	30 to 50 nM	–
COC1CN(c2ncc(C(C)C)c3cc(Nc4ccnc(N5CC[C@@H](O)[C@@](C)(F)C5)n4)ncc23)C1 [Example 51, (3S,4R)-3-fluoro-1-(4-((5-isopropyl-8-(3-methoxyazetidin-1-yl)-2,7-naphthyridin-3-yl)amino)pyrimidin-2-yl)-3-methylpiperidin-4-ol]	< 15 nM	20 to 30 nM	–
CC(C)c1cnc(N2CC[C@@H](CS(C)(=O)=O)C2)c2cnc(Nc3ccnc(N4CC[C@@H](O)[C@@](C)(F)C4)n3)cc12 (single isomer, unassigned) [Example 208, (3S,4R)-3-fluoro-1-(4-((5-isopropyl-8-((R)-3-((methylsulfonyl)methyl)pyrrolidin-1-yl)-2,7-naphthyridin-3-yl)amino)pyrimidin-2-yl)-3-methylpiperidin-4-ol or (3S,4R)-3-fluoro-1-(4-((5-isopropyl-8-((S)-3-((methylsulfonyl)methyl)pyrrolidin-1-yl)-2,7-naphthyridin-3-yl)amino)pyrimidin-2-yl)-3-methylpiperidin-4-ol]	–	10 to 20 nM	< 15 nM
CC(C)c1cnc(N2C[C@H](O)[C@H]2C)c2cnc(Nc3ccnc(N4CC[C@@H](O)C(C)(C)C4)n3)cc12 (single isomer, unassigned) [Example 168, (R)-1-(4-((8-((2R,3S)-3-hydroxy-2-methylazetidin-1-yl)-5-isopropyl-2,7-naphthyridin-3-yl)amino)pyrimidin-2-yl)-3,3-dimethylpiperidin-4-ol or (S)-1-(4-((8-((2R,3S)-3-hydroxy-2-methylazetidin-1-yl)-5-isopropyl-2,7-naphthyridin-3-yl)amino)pyrimidin-2-yl)-3,3-dimethylpiperidin-4-ol]	< 15 nM	30 to 50 nM	–
CC(C)c1cnc(N2CC(CNS(C)(=O)=O)C2)c2cnc(Nc3ccnc(N4CC[C@@H](O)[C@@](C)(F)C4)n3)cc12 [Example 83, N-((1-(6-((2-((3S,4R)-3-fluoro-4-hydroxy-3-methylpiperidin-1-yl)pyrimidin-4-yl)amino)-4-isopropyl-2,7-naphthyridin-1-yl)azetidin-3-yl)methyl)methanesulfonamide]	< 15 nM	20 to 30 nM	–
CC(C)c1cnc(N2CCC23CN(C)C3)c2cnc(Nc3ccnc(N4CCC5(CCO5)CC4)n3)cc12 [Example 116, N-(2-(1-oxa-7-azaspiro[3.5]nonan-7-yl)pyrimidin-4-yl)-5-isopropyl-8-(6-methyl-1,6-diazaspiro[3.3]heptan-1-yl)-2,7-naphthyridin-3-amine]	20 to 30 nM	> 50 nM	–
CC(C)c1cnc(N2CC(O)C2)c2cnc(Nc3ccnc(N4CC[C@@]5(CCO5)C(F)(F)C4)n3)cc12 (single isomer, unassigned) [Example 146, (R)-1-(6-((2-(5,5-difluoro-1-oxa-7-azaspiro[3.5]nonan-7-yl)pyrimidin-4-yl)amino)-4-isopropyl-2,7-naphthyridin-1-yl)azetidin-3-ol or (S)-1-(6-((2-(5,5-difluoro-1-oxa-7-azaspiro[3.5]nonan-7-yl)pyrimidin-4-yl)amino)-4-isopropyl-2,7-naphthyridin-1-yl)azetidin-3-ol]	< 15 nM	30 to 50 nM	–
